Assay results: patent publication US10149907B2, “Combinations of a photosensitizer with a hydrogen sulfide donor, thioredoxin inhibitor or nitroxide for use in photodynamic therapy” (UNIVERSITY OF EXETER, priority 2014, dated 2018)
Values joined by “and” are separate entries in the source; they are usually repeats but may differ in a detail not shown here. Equal entries are not always repeated. Where two headings read alike, the source gives them in different places.

Columns and labels:
thioredoxin reductase = target: T1, thioredoxin reductase (Homo sapiens, UniProt Q16881); settings: cited from earlier work
T1 sequence (Q16881 151-649 limits assumed): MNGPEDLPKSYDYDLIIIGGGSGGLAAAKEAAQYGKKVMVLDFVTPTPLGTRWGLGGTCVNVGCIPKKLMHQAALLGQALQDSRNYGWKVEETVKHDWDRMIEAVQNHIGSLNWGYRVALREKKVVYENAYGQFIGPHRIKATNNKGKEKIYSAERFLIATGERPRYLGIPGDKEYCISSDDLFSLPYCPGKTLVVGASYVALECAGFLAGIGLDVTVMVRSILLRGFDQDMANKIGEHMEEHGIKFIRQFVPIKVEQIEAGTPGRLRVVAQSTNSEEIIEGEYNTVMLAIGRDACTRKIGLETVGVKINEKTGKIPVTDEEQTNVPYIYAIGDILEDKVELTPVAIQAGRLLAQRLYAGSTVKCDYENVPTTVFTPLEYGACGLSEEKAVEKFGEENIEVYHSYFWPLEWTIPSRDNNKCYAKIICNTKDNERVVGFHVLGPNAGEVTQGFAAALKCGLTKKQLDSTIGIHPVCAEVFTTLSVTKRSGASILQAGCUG

A431 cells [1] = test system: A431 cells
In short: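 In the PDT set-up, cells held at 2% O2 got 1 mM MAL with or without compound for 3 h, then 3 h recovery under 2% O2. Compound-alone cytotoxicity used cells seeded at 3×10^5/well for 24 h, treated for the relevant time.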

A431 cells [2] = assay: Photodynamic cell killing in the presence of inhibitors of the thioredoxin antioxidant system or nitroxides (annexin V-FITC/propidium iodide flow cytometry); assay type: cell-based, human
A431 cells [3] = assay: Mitochondrial reactive oxygen species generation during photodynamic irradiation, MitoSOX flow cytometry; assay type: cell-based, human; settings: MAL 1 mM + co-treatment 10 μM, 3 hours, irradiated
In short: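 A431 cells received AP39-C10 (10, 100 or 1000 nM) for 5 h, MAL (1 mM) for 3 h and MitoSOX (2.5 μM) for 1 h, then were irradiated for 5 min (630 nm, 25 J/cm^2). Mitochondrial oxidant production was read immediately as MitoSOX fluorescence by flow cytometry and expressed as percent of untreated controls.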

In the case of O=[N+]([O-])c1ccc(Cl)c([N+](=O)[O-])c1 [DNCB, 1-chloro-2,4-dinitrobenzene], the “inactivation of reduced thioredoxin reductase” value (thioredoxin reductase; 50 nM reduced enzyme, 5 minutes incubation with 100 μM DNCB, presence of NAD(P)H) is given as “Complete inactivation”, the “inactivation of thioredoxin reductase faster than the alkylation of GSH” value (thioredoxin reductase) is given as ~10,000 fold and the “cell viability, percentage of untreated control” value (“cell viability, percentage” below) (A431 cells [1]; 1 μM with 1 mM MAL, 3 hours) is given as 97.4±6.9%. For the same molecule, the “cell viability, percentage” value (A431 cells [1]; 5 μM with 1 mM MAL, 3 hours) was 99.4±7.3%, the “cell viability, percentage” value (A431 cells [1]; 10 μM with 1 mM MAL, 3 hours) was 98.6±6.2% and the “cell viability, percentage” value (A431 cells [1]; 25 μM with 1 mM MAL, 3 hours) was 79.0±4.3%. For the same molecule, the “cell viability, percentage” value (A431 cells [1]; 50 μM with 1 mM MAL, 3 hours) was 57.7±1.4%, the “cell viability, percentage” value (A431 cells [1]; 50 μM, 24 hours) was 11.7±0.8% and the “cell viability, percentage” value (A431 cells [1]; 100 μM, 24 hours) was 14.8±4.2%. For the same molecule, the “concentration up to which well tolerated / no cytotoxicity” value (A431 cells [1]; 24 hours) was “up to 10 μM”, the “modes of cell death” value (A431 cells [2]; 1 mM MAL + DNCB 10 μM or auranofin 100 nM + irradiation, compared to MAL and irradiation, FIG. 10) was “primarily increased necrotic cell death” and the cell death (A431 cells [2]; 1 mM MAL + co-treatment 10 μM, 3 h, irradiation) was 46.3±4.0% and 43.8±3.9%. For the same molecule, the “potentiating effect on MAL photodynamic cell killing” value (A431 cells [2]; summary of Examples 2A, 3A) was “mild potentiating effect” and the “MitoSOX fluorescence, percentage of untreated cells” value (A431 cells [3]) was 209.5±3.2%.
